How the values were obtained:
Assay type in all cases: biochemical
[1] = biological target: T1, PAD2 (Homo sapiens, UniProt Q9Y2J8); experiment: PAD enzyme activity assay with purchased human PAD2 (BAEE colorimetric assay described for PAD4)
T1 construct: gene PADI2

[2] = biological target: T2, mouse PAD4 (Mus musculus, UniProt Q9Z183); experiment: BAEE citrullination colorimetric assay (diacetyl monoxime, A465) with purchased enzyme, […] min preincubation
T2 construct: gene Padi4

[3] = biological target: T3, human PAD4 (Homo sapiens, UniProt Q9UM07); experiment: as above
T3 construct: gene PADI4

[4] = biological target: T4, PAD3 (Homo sapiens, UniProt Q9ULW8); experiment: PAD enzyme activity assay with purchased human PAD3 (BAEE colorimetric assay described for PAD4)
T4 construct: gene PADI3
T4 sequence (Q9ULW8 1-664): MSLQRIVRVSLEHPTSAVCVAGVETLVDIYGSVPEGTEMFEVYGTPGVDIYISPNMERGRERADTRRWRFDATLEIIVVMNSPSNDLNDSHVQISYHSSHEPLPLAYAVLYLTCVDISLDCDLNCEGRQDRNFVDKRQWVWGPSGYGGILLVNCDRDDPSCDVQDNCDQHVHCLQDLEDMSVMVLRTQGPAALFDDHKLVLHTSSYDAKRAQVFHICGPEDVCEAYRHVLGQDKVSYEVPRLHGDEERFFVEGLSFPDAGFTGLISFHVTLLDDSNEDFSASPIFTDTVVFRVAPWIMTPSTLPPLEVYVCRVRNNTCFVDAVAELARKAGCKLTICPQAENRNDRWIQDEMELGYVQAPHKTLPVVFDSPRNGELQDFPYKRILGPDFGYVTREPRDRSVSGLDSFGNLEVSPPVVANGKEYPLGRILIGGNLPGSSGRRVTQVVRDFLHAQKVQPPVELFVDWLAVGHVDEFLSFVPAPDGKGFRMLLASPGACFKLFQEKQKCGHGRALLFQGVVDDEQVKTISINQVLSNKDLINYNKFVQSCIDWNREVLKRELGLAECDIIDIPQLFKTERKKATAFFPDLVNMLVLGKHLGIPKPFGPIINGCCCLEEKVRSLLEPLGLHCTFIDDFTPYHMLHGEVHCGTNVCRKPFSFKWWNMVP

[5] = biological target: T5, PAD1 (Homo sapiens, UniProt Q9ULC6); experiment: PAD enzyme activity assay with purchased human PAD1 (BAEE colorimetric assay described for PAD4)
T5 construct: gene PADI1
T5 sequence (Q9ULC6 1-663): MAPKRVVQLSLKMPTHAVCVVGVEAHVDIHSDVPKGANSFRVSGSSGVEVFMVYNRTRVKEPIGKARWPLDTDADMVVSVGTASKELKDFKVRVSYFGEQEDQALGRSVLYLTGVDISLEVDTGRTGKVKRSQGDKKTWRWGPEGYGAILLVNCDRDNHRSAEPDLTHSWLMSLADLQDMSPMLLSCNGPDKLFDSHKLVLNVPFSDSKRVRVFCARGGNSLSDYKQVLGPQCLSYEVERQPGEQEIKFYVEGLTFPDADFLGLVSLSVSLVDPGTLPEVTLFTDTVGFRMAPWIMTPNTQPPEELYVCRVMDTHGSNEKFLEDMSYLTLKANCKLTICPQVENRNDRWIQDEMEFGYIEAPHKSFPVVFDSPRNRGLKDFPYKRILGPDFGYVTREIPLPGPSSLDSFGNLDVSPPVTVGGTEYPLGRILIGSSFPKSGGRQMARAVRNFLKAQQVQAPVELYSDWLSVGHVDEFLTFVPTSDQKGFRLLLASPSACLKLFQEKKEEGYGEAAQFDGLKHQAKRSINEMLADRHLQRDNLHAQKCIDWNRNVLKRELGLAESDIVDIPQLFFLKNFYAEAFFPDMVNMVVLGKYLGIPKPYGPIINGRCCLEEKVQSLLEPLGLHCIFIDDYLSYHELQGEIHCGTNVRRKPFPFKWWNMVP

T1 sequence (Q9Y2J8 whole entry): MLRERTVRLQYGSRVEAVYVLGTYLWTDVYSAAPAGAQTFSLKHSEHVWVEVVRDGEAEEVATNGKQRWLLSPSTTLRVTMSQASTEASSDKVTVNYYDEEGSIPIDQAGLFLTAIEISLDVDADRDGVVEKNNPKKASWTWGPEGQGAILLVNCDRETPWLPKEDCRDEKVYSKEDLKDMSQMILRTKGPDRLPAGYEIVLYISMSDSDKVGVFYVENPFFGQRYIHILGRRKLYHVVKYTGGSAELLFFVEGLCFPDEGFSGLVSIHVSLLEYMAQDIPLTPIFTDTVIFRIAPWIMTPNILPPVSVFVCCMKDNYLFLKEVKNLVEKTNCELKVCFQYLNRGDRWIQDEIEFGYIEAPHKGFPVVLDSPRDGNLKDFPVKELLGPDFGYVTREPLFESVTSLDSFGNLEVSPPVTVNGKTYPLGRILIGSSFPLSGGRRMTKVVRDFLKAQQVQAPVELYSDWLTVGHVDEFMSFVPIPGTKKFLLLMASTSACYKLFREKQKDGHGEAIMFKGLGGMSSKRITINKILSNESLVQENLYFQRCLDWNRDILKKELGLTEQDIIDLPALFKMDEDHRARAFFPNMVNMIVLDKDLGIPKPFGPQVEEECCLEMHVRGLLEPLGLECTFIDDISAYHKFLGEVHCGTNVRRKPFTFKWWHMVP
T3 sequence (Q9UM07 whole entry): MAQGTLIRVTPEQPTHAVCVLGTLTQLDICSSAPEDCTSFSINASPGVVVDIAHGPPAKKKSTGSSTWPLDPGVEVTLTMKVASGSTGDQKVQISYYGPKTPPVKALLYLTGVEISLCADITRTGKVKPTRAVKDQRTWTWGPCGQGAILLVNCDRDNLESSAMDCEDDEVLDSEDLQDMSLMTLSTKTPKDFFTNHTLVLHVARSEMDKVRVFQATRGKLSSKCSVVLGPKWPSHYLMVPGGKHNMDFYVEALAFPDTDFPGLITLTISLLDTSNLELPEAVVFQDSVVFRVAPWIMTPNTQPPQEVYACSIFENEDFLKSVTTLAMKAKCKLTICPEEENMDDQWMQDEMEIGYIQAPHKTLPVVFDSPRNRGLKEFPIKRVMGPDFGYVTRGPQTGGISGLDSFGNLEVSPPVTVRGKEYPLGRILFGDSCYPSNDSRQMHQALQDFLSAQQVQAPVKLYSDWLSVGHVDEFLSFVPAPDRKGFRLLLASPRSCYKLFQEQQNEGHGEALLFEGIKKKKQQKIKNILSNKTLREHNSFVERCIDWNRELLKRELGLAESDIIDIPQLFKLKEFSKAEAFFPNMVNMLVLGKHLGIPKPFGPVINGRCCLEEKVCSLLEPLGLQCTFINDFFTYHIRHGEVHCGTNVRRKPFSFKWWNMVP
T2 sequence (Q9Z183 whole entry): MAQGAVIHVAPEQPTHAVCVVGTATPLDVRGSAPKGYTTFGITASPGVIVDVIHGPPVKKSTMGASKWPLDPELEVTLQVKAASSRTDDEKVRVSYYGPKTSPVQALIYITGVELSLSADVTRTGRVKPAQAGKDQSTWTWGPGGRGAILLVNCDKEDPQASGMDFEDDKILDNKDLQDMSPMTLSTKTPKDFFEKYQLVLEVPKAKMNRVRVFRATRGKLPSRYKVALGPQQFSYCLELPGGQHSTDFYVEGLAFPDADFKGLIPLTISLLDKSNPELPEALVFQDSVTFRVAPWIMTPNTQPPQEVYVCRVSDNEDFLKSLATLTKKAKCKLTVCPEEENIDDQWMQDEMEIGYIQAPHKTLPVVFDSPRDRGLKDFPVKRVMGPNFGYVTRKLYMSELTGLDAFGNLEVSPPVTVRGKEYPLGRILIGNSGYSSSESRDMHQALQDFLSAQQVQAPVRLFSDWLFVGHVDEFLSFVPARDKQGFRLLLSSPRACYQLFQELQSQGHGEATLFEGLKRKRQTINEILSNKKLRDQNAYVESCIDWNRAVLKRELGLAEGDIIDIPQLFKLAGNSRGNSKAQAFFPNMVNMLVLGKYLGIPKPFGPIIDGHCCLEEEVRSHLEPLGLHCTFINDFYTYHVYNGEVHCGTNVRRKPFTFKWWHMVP

For `CN(C)c1ccc2cc(C(=O)N[C@@H](CCCNC(=N)CCl)C(=O)NCc3ccccc3)ccc2c1` [YW3-56], the IC50 [1] was 6340 nM, the IC50 [2] was 2540 nM and the IC50 [3] was 1190 nM. It also gave an IC50 [4] of 53400 nM and an IC50 [5] of 1450 nM.
